Paper PMC11470957, “Principles of paralog-specific targeted protein degradation engaging the C-degron E3 KLHDC2” (Nature Communications, 2024)
Values joined by “and” are separate entries in the source; they are usually repeats but may differ in a detail not shown here. Identical values can stand only once.

Biological target: T1, KLHDC2 (Homo sapiens, UniProt Q9Y2U9)
T1 sequence (Q9Y2U9 1-406): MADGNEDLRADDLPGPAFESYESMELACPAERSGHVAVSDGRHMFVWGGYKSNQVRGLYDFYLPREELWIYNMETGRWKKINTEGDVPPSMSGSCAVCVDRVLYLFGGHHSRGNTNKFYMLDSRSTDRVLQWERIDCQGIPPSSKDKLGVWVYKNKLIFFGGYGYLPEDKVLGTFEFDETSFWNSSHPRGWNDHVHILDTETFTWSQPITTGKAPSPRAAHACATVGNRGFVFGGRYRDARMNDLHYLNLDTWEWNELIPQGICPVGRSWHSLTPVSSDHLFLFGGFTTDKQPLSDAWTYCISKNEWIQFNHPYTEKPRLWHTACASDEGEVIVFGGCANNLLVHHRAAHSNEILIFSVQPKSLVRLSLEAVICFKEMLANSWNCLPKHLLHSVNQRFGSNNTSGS
Assay: Western blot of KLHDC2 levels after cellular dosing
Conditions: for KLHDC2 level, Western blot quantification: KO/Rescue, DMSO printed 0

[1] = Fig S6b, MDA-MB468 Cells, 10 uM

Compound: COC(=O)CNC(=O)Cc1csc(-c2ccc3cccc(OCCN4CCN(C(=O)C[C@@H]5N=C(c6ccc(Cl)cc6)c6c(sc(C)c6C)-n6c(C)nnc65)CC4)c3c2)n1 [SJ46420]
- KLHDC2 level relative to DMSO (100%) (22Rv1, 0.16µM, 24 h, Fig S6f): 167 +/- 17%
- KLHDC2 level relative to DMSO (100%) (22Rv1, 0.31µM, 24 h, Fig S6f): 171 +/- 10%
- KLHDC2 level relative to DMSO (100%) (22Rv1, 0.63µM, 24 h, Fig S6f): 179 +/- 13%
- KLHDC2 level relative to DMSO (100%) (22Rv1, 1.3µM, 24 h, Fig S6f): 199 +/- 27%
- KLHDC2 level relative to DMSO (100%) (22Rv1, 2.5µM, 24 h, Fig S6f): 170 +/- 35%
- KLHDC2 level relative to DMSO (100%) (22Rv1, 5µM, 24 h, Fig S6f): 238 +/- 26%
- KLHDC2 level relative to DMSO (100%) (22Rv1, 10µM, 24 h, Fig S6f): 356 +/- 37%
- KLHDC2 level relative to DMSO (100%) (293T, 2.5µM, 24 h, Fig S6a): 130 +/- 3.8%
- KLHDC2 level relative to DMSO (100%) (293T, 5µM, 24 h, Fig S6a): 132 +/- 4.4%
- KLHDC2 level relative to DMSO (100%) (AU565, 0.2µM, 8 h, Fig S6c): 96 +/- 4.5%
- KLHDC2 level relative to DMSO (100%) (AU565, 1µM, 8 h, Fig S6c): 102 +/- 8.6%
- KLHDC2 level relative to DMSO (100%) (AU565, 5µM, 8 h, Fig S6c): 104 +/- 6.7%
- KLHDC2 level, Western blot quantification (Fig 6b, 5 uM): 0
- KLHDC2 level, Western blot quantification (DMSO = 100) (Fig 6b, U2OS, 5 uM): 114.478 and 116.145
- KLHDC2 level, Western blot quantification (DMSO = 100) (Fig 6c, 1 uM): 373.51 and 441.349
- KLHDC2 level, Western blot quantification (DMSO = 100) (Fig 6d, 1 uM): 1598.67 and 1321.11
- KLHDC2 level, Western blot quantification (DMSO = 100) (Fig 6d, 1uM together with 1uM MLN4924): 4337 and 4000.23
- KLHDC2 level, Western blot quantification (DMSO = 100) (Fig S6a, 293T cells, 2.5 uM): 127.565 and 133
- KLHDC2 level, Western blot quantification (DMSO = 100) (Fig S6a, 293T cells, 5 uM): 128.652 and 135
- KLHDC2 level, Western blot quantification (DMSO = 100) (Fig S6b, MDA-MB468 Cells, 2 uM): 157.366 and 160
- KLHDC2 level, Western blot quantification (DMSO = 100) (Fig S6b, MDA-MB468 Cells, 5 uM): 170.896 and 175
- KLHDC2 level, Western blot quantification (DMSO = 100) [1]: 190.223 and 200
- KLHDC2 level, Western blot quantification (DMSO = 100) (Fig S6c, AU565 Cells, 0.2 uM): 94.0454 and 99.4615
- KLHDC2 level, Western blot quantification (DMSO = 100) (Fig S6c, AU565 Cells, 1 uM): 108.13 and 96.9184
- KLHDC2 level, Western blot quantification (DMSO = 100) (Fig S6c, AU565 Cells, 5 uM): 108.427 and 99.9384
- KLHDC2 level, Western blot quantification (DMSO = 100) (Fig S6f, 22RV1 KO/rescue Dose Response, 0.156 uM): 180 and 155
- KLHDC2 level, Western blot quantification (DMSO = 100) (Fig S6f, 22RV1 KO/rescue Dose Response, 0.313 uM): 178 and 164
- KLHDC2 level, Western blot quantification (DMSO = 100) (Fig S6f, 22RV1 KO/rescue Dose Response, 0.625 uM): 188 and 170
- KLHDC2 level, Western blot quantification (DMSO = 100) (Fig S6f, 22RV1 KO/rescue Dose Response, 1.25 uM): 219 and 180
- KLHDC2 level, Western blot quantification (DMSO = 100) (Fig S6f, 22RV1 KO/rescue Dose Response, 2.5 uM): 149 and 192
- KLHDC2 level, Western blot quantification (DMSO = 100) (Fig S6f, 22RV1 KO/rescue Dose Response, 5 uM): 256 and 220
- KLHDC2 level, Western blot quantification (DMSO = 100) (Fig S6f, 22RV1 KO/rescue Dose Response, 10uM): 382 and 330
- KLHDC2 level, Western blot quantification (DMSO = 100) (Fig S6g, SKBR3 Time course, 1 uM, 2hr): 96.2473 and 100.234
- KLHDC2 level, Western blot quantification (DMSO = 100) (Fig S6g, SKBR3 Time course, 1 uM, 4hr): 98.547 and 105.246
- KLHDC2 level, Western blot quantification (DMSO = 100) (Fig S6g, SKBR3 Time course, 1 uM, 8hr): 108.754 and 118.735
- KLHDC2 level, Western blot quantification (DMSO = 100) (Fig S6g, SKBR3 Time course, 5 uM, 2hr): 110.116 and 102.856
- KLHDC2 level, Western blot quantification (DMSO = 100) (Fig S6g, SKBR3 Time course, 5 uM, 4hr): 118.1 and 127.234
- KLHDC2 level, Western blot quantification (DMSO = 100) (Fig S6g, SKBR3 Time course, 5 uM, 8hr): 125.323 and 132.123
- KLHDC2 level, Western blot quantification (DMSO = 100) (Fig S6i, SKBR3, 5uM): 108.759 and 120.207
- KLHDC2 level, Western blot quantification (DMSO = 100) (Fig S6i, U2OS, 5uM): 115.927 and 106.939
- KLHDC2 level, Western blot quantification (DMSO = 100) (Fig S6h, U2OS Time course, 5uM, 2hr): 102.827 and 100.635
- KLHDC2 level, Western blot quantification (DMSO = 100) (Fig S6h, U2OS Time course, 5uM, 4hr): 116.419 and 128.136
- KLHDC2 level, Western blot quantification (DMSO = 100) (Fig S6h, U2OS Time course, 5uM, 8hr): 157.536 and 145.235
- KLHDC2 level, Western blot quantification (DMSO = 100) (Fig S6h, U2OS Time course, 5uM, 24hr): 121.407 and 133.135
- KLHDC2 level, Western blot quantification (DMSO = 100) (Fig S6d, U2OS KO/rescue Dose Response, 0.156 uM): 140 and 155
- KLHDC2 level, Western blot quantification (DMSO = 100) (Fig S6d, U2OS KO/rescue Dose Response, 0.313 uM): 192 and 220
- KLHDC2 level, Western blot quantification (DMSO = 100) (Fig S6d, U2OS KO/rescue Dose Response, 0.625 uM): 253 and 275
- KLHDC2 level, Western blot quantification (DMSO = 100) (Fig S6d, U2OS KO/rescue Dose Response, 1.25 uM): 345 and 380
- KLHDC2 level, Western blot quantification (DMSO = 100) (Fig S6d, U2OS KO/rescue Dose Response, 2.5 uM): 540 and 580
- KLHDC2 level, Western blot quantification (DMSO = 100) (Fig S6d, U2OS KO/rescue Dose Response, 5 uM): 581 and 620
- KLHDC2 level relative to DMSO (100%) (MDA-MB-468, 2.5µM, 24 h, Fig S6b): 158 +/- 1.9%
- KLHDC2 level relative to DMSO (100%) (MDA-MB-468, 5µM, 24 h, Fig S6b): 172 +/- 4.4%
- KLHDC2 level relative to DMSO (100%) (MDA-MB-468, 10µM, 24 h, Fig S6b): 195 +/- 7.2%
- KLHDC2 level relative to DMSO (100%) (PC3, 0.16µM, 24 h, Fig S6e): 65 +/- 9.7%
- KLHDC2 level relative to DMSO (100%) (PC3, 0.31µM, 24 h, Fig S6e): 68 +/- 8.9%
- KLHDC2 level relative to DMSO (100%) (PC3, 0.63µM, 24 h, Fig S6e): 43 +/- 15%
- KLHDC2 level relative to DMSO (100%) (PC3, 1.3µM, 24 h, Fig S6e): 48 +/- 8.5%
- KLHDC2 level relative to DMSO (100%) (PC3, 2.5µM, 24 h, Fig S6e): 50 +/- 8.6%
- KLHDC2 level relative to DMSO (100%) (PC3, 5µM, 24 h, Fig S6e): 49 +/- 6.1%
- KLHDC2 level relative to DMSO (100%) (PC3, 10µM, 24 h, Fig S6e): 40 +/- 7.2%
- KLHDC2 level relative to DMSO (100%) (SKBR3, 1µM, 2hr, Fig S6g): 98 +/- 2.6%
- KLHDC2 level relative to DMSO (100%) (SKBR3, 1µM, 4hr, Fig S6g): 101 +/- 4.6%
- KLHDC2 level relative to DMSO (100%) (SKBR3, 5µM, 2hr, Fig S6g): 106 +/- 5.8%
- KLHDC2 level relative to DMSO (100%) (SKBR3, 5µM, 4hr, Fig S6g): 122 +/- 6.3%
- KLHDC2 level relative to DMSO (100%) (SKBR3, 5µM, 8hr, Fig S6g): 129 +/- 4.7%
- KLHDC2 level relative to DMSO (100%) (U2OS DC2KO (KLHDC2 knockout), 5µM, 24 h, Fig 6b): 0 +/- 0%
- KLHDC2 level relative to DMSO (100%) (U2OS KO/Rescue, 0.16µM, 24 h, Fig S6d): 146 +/- 12%
- KLHDC2 level relative to DMSO (100%) (U2OS KO/Rescue, 0.31µM, 24 h, Fig S6d): 205 +/- 21%
- KLHDC2 level relative to DMSO (100%) (U2OS KO/Rescue, 0.63µM, 24 h, Fig S6d): 264 +/- 16%
- KLHDC2 level relative to DMSO (100%) (U2OS KO/Rescue, 1µM + co-dosing 1µM MLN4924, 24 h, Fig 6d): 4170 +/- 238%
- KLHDC2 level relative to DMSO (100%) (U2OS KO/Rescue, 1µM, 24 h, Fig 6c): 407 +/- 47%
- KLHDC2 level relative to DMSO (100%) (U2OS KO/Rescue, 1µM, 24 h, Fig 6d): 1460 +/- 196%
- KLHDC2 level relative to DMSO (100%) (U2OS KO/Rescue, 1.3µM, 24 h, Fig S6d): 362 +/- 25%
- KLHDC2 level relative to DMSO (100%) (U2OS KO/Rescue, 2.5µM, 24 h, Fig S6d): 559 +/- 29%
- KLHDC2 level relative to DMSO (100%) (U2OS KO/Rescue, 5µM, 24 h, Fig S6d): 600 +/- 32%
- KLHDC2 level relative to DMSO (100%) (U2OS KO/Rescue, concentration not printed (line after 5µM), 24 h, Fig S6d): 710 +/- 67%
- KLHDC2 level relative to DMSO (100%) (U2OS, 5µM, 2hr, Fig S6h): 101 +/- 1.9%
- KLHDC2 level relative to DMSO (100%) (U2OS, 5µM, 4hr, Fig S6h): 122+/- 8.2%
- KLHDC2 level relative to DMSO (100%) (U2OS, 5µM, 8hr, Fig S6i): 111 +/- 6.4%
- KLHDC2 level relative to DMSO (100%) (U2OS, 5µM, 8hr, Fig S6h): 151 +/- 8.8%
- KLHDC2 level relative to DMSO (100%) (U2OS, 5µM, 24hr, Fig S6h): 127 +/- 8.2%

Compound: Cc1sc2c(c1C)C(c1ccc(Cl)cc1)=N[C@@H](CC(=O)N1CCN(CCOc3cccc4ccc(-c5nc(CC(=O)NCC(=O)O)cs5)cc34)CC1)c1nnc(C)n1-2 [SJ46421]
- KLHDC2 level, Western blot quantification (Fig 6b, 5 uM): 0
- KLHDC2 level, Western blot quantification (DMSO = 100) (Fig 6b, U2OS, 5 uM): 103.737 and 122.001
- KLHDC2 level, Western blot quantification (DMSO = 100) (Fig S6a, 293T cells, 2.5 uM): 109.414 and 102
- KLHDC2 level, Western blot quantification (DMSO = 100) (Fig S6a, 293T cells, 5 uM): 112.068 and 103
- KLHDC2 level, Western blot quantification (DMSO = 100) [1]: 128.202 and 120
